# In patent publication US8669267B2, “Pharmaceutical, food or beverage having inhibitory activity on serotonin transporter” (Suntory Holdings Limited, priority 2008, dated 2014):
# Columns and labels:
# [1] = biological target: T1, human serotonin transporter (Homo sapiens, UniProt P31645); test: [3H] imipramine binding to cell homogenate of CHO cells expressing human serotonin transporter; conditions: 100 μg/mL (1S,3S)-MTCA sample; 2 nM [3H] imipramine; 22° C. for 60 minutes; control = 100
# T1 construct: expressed in transfected cells; host or cells: CHO cells, vector pRc/CMV, calcium phosphate transfection
# T1 sequence (P31645 whole entry): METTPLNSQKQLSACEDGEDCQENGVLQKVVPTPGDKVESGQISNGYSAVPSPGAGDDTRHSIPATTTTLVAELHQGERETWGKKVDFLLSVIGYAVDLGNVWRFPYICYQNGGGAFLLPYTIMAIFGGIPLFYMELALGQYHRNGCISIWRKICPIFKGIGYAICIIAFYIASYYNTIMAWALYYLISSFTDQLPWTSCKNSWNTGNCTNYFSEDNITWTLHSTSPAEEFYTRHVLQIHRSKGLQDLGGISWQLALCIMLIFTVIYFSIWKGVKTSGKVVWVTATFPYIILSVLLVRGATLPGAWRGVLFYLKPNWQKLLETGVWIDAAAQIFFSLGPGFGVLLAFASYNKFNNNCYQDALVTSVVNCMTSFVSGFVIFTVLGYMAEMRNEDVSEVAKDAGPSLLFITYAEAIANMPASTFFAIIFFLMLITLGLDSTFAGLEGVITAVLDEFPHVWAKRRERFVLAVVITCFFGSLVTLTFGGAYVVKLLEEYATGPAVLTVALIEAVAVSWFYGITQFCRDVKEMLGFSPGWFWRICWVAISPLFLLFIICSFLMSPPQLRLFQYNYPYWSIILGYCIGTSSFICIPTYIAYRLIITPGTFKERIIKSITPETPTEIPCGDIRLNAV
# Experimental: A commercially-available (1S,3S)-2,3,4,9-tetrahydro-1-methyl-1H-pyrido[3,4-b]-indole-3-carboxylic acid reagent (manufactured by Wako Pure Chemical Industries, Ltd.) was used as a subject substance ((1S,3S)-MTCA), and the inhibitory effect of (1S,3S)-MTCA on serotonin transporters was determined using a method described in Masahiko T, et al: European Journal of Pharmacology 368 277-283, 1999.
# CHO cells were transfected with a secretory vector pRc/CMV, in which cDNA of a human serotonin transporter was incorporated, by a calcium phosphate method. […]
# Then, the medium was removed by aspiration to prepare a cell homogenate. […] The concentration of protein in the resulting cell homogenate was measured by a Lowry method using bovine serum albumin (BSA) as a standard.
# Thereafter, 25 μL, of (1S,3S)-MTCA solution dissolved in physiological saline (100 μg/mL) and the solution 2 (225 μL) comprising 2 nM [^3H] imipramine were added to a 96-hole microplate, and the cell homogenate (amount of protein: 15 μg) obtained in (1) was added to the microplate, followed by incubation at 22° C. for 60 minutes. […] Non-specific binding of [^3H] imipramine to the cell homogenate was determined using 10 μM imipramine. […]
# [2] = system: C57BL/6N mice with motivation decreased through open-space swimming; test: Open-space swimming combined with Morris water maze test (escape-latency); type: in vivo
# Experimental: The subjects were […] male C57BL/6N mice that had never been subjected to any experiment. At the beginning of the experiment, an average age of the subjects was about 12 weeks old, and an average weight of the subjects was 24.9 g (SD=3.30). The subjects were housed in an acrylic cage in an animal house in which the room temperature was 23° C. and the humidity was 50 to 60%. The inside of the animal house was set such that a light is alternately turned on and off in a 12-hour cycle (light period: from 8:00 AM to 8:00 PM). This experiment was carried out every day at the same time period during the light period. As feedstuff, a dry solid feed (Labo MR manufactured by Nosan Corporation) was fed. The supply of neither feedstuff nor water was limited.
# The subjects were divided into 3 groups, and they were named noOS-Vehicle group (group of normal mice) (n=10), OS-(1S,3S)-MTCA-administered group (n=10), and OS-Vehicle group (group of mice having depression) (n=10), respectively.
# A circular pool with an inner diameter of 95 cm and a depth of 35 cm was used. The pool was surrounded by white partitions each having a height of 120 cm and a width of 150 cm. […] The place where the escape platform was located was a central part of one of the four evenly-divided fan-shaped quadrants (Quadrant 1 to 4) of a circular water surface, and was determined for each subject. […]
# γ-crystallin = conditions: cited from earlier work
# monoamine oxidase A = biological target: T2, monoamine oxidase A (Homo sapiens, UniProt P21397); conditions: cited from earlier work
# T2 sequence (P21397 1-527): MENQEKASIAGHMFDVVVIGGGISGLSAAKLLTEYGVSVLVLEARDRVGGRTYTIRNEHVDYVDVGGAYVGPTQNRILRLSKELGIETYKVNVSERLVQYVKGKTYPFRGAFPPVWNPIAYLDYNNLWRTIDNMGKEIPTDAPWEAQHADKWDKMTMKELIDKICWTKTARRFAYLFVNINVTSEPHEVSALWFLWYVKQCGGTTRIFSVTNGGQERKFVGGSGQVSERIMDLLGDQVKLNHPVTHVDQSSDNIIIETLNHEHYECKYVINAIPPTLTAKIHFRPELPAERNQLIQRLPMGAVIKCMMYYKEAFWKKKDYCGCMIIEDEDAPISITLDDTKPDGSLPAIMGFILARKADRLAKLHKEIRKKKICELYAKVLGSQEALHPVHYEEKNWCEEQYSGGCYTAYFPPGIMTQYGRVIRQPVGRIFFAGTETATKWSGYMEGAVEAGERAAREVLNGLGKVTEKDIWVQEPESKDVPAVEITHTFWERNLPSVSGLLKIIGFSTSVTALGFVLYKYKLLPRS
# [3] = system: uptake of serotonin in the brain; conditions: cited from earlier work
# rats = conditions: forced-swimming tests using rats; cited from earlier work
amount of [3H] imipramine that specifically bound to the cell homogenate (control was 100) [1],SMILES,"average escape-latency (average of five trials) ([2]; Day 1 of administration, 20 mg/kg orally 60 minutes before training, open-space swimming treated mice, OS-Vehicle 52.6, noOS-Vehicle 44.1)","time taken to reach the escape platform compared with the OS-Vehicle group ([2]; continuous administration up to Day 10, 20 mg/kg orally every day, FIG. 3)",self-polymerization reaction of γ-crystallin (γ-crystallin; Fenton reaction using FeCl3),photopolymerization reaction of γ-crystallin (γ-crystallin),activity of monoamine oxidase A (monoamine oxidase A),uptake of serotonin in the brain [3],immobility time (rats)
69,"C[C@@H]1N[C@H](C(=O)O)Cc2c1[nH]c1ccccc21 [(1S,3S)-MTCA, (1S,3S)-1-methyl-1,2,3,4-tetrahydro-β-carboline-3-carboxylic acid]",42.7 s,decreased significantly,prevents,prevents,–,–,–
–,"COc1ccc2[nH]c3c(c2c1)CCNC3 [pinoline, 6-methoxy-1,2,3,4-tetrahydro-β-carboline]",–,–,–,–,inhibits,inhibits,reduces
